# Experimental data as given in patent publication US20230365546A1, “5-SUBSTITUTED INDOLE 3-AMIDE DERIVATIVES, PREPARATION METHOD AND USE THEREOF” (ORIGIANT PHARMACEUTICAL CO., LTD, priority 2020, published 2023).
# Columns and labels:
# Assay in all cases: Kinase Profiler 10 μM panel
# Met(D1246H)(h) = Met(D1246H)(h) (Homo sapiens (Human), UniProt P08581, D1228H)
# Protocol: (§1) In vitro kinase assays were conducted using Kinase Profiler services provided by Eurofins. The experimental method was as follows: the small molecule compound to be tested (0.001-10 μM), the protein kinase to be tested were incubated with a buffer containing substrate, 10 mM magnesium acetate, and [γ-^33P-ATP], the reaction was started by adding Mg\TPmix, after incubation for a period of time at room temperature, a 3% phosphate solution was added to the buffer to stop the reaction. Subsequently, 10 μL of the reaction mixture was quantitatively pipetted onto P30 filter paper, which was washed three times with 75 mM phosphate solution and then once with methanol. The P30 filter paper was air-dried and scintillation fluid was added for scintillation counting.
# PKCβII(h) = PKCβII(h) (Homo sapiens (Human), UniProt P05771)
# Protocol: as §1
# PAR-1Bα(h) = PAR-1Bα(h) (Homo sapiens (Human), UniProt Q7KZI7)
# Protocol: as §1
# CDK12/cyclinK(h) = CDK12/cyclinK(h) (Homo sapiens (Human), UniProt Q9NYV4)
# Protocol: as §1
# Mer(h) = Mer(h) (Homo sapiens (Human), UniProt Q12866)
# Protocol: as §1
# TrkA(h) = TrkA(h) (Homo sapiens (Human), UniProt P04629)
# Sequence of TrkA(h) (P04629 33-796): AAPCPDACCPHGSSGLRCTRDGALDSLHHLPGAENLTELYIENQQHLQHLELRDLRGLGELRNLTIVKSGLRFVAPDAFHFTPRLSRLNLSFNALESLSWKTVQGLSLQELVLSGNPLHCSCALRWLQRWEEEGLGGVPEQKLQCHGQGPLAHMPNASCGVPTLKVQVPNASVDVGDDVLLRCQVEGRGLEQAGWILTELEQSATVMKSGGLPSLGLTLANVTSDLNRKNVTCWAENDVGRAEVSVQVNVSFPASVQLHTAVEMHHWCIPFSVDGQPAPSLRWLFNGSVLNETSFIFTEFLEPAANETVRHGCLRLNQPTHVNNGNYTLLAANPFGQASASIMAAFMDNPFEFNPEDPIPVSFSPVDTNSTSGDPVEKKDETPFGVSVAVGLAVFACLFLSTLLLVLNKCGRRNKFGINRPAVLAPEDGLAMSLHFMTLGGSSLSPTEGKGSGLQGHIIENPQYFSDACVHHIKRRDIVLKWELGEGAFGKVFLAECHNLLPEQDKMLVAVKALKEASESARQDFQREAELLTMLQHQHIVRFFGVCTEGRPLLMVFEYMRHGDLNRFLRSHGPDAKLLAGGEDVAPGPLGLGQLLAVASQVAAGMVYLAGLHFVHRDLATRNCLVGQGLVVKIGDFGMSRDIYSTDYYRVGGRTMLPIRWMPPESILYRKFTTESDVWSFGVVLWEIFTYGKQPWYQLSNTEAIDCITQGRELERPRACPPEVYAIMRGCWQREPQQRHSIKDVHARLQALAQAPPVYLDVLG
# Protocol: as §1
# Yes(h) = Yes(h) (Homo sapiens (Human), UniProt P07947)
# Protocol: as §1
# CHK2(I157T)(h) = CHK2(I157T)(h) (Homo sapiens (Human), UniProt O96017, I157T)
# Protocol: as §1
# EGFR(h) = EGFR(h) (Homo sapiens (Human), UniProt P00533)
# Protocol: as §1
# mTOR/FKBP12(h) = mTOR/FKBP12(h) (Homo sapiens (Human), UniProt P42345)
# Protocol: as §1
# [1] = molecular target: PI3 Kinase (p110a(H1047R)/p85a)(h) (Homo sapiens (Human), UniProt P42336, H1047R)
# Protocol: as §1
# PrKX(h) = PrKX(h) (Homo sapiens (Human), UniProt P51817)
# Protocol: as §1
# RIPK1(h) = RIPK1(h) (Homo sapiens (Human), UniProt Q13546)
# Sequence of RIPK1(h) (Q13546 whole entry): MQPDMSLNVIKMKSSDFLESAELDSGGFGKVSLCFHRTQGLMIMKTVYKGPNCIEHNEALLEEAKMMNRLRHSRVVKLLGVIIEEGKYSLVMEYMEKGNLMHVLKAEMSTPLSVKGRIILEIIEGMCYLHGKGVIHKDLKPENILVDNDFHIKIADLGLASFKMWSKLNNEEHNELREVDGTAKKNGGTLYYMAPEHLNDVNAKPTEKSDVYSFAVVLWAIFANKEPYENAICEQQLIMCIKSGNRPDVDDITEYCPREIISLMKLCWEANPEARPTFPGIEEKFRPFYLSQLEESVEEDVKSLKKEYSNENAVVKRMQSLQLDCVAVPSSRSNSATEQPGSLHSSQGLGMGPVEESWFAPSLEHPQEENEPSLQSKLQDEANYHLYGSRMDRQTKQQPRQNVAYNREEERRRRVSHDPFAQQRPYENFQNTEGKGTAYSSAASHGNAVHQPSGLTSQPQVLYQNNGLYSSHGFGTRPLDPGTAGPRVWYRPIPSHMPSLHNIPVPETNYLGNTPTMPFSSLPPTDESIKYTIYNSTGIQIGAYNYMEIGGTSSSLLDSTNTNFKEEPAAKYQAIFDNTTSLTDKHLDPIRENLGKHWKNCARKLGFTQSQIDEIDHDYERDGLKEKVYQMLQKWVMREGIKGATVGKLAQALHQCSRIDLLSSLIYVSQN
# Protocol: as §1
# NIM1(h) = NIM1(h) (Homo sapiens (Human), UniProt Q8IY84)
# Sequence of NIM1(h) (Q8IY84 whole entry): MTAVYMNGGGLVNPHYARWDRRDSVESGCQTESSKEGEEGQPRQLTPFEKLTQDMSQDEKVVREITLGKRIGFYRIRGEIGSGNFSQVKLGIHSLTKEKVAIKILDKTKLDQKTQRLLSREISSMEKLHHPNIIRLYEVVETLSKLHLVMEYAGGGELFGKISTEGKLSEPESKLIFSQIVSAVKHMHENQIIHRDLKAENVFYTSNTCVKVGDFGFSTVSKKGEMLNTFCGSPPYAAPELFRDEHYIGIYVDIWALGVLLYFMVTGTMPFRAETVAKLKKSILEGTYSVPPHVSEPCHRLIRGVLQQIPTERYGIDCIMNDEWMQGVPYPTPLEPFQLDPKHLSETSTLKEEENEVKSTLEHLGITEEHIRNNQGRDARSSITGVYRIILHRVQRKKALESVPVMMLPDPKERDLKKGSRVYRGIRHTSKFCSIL
# Protocol: as §1
# PKCβI(h) = PKCβI(h) (Homo sapiens (Human), UniProt P05771)
# Protocol: as §1
# TTK(h) = TTK(h) (Homo sapiens (Human), UniProt P33981)
# Protocol: as §1
# EphB1(h) = EphB1(h) (Homo sapiens (Human), UniProt P54762)
# Protocol: as §1
# [2] = molecular target: PI3 Kinase (p110a(E542K)/p85a)(m) (Mus musculus (Mouse), UniProt P42337, E542K)
# Protocol: as §1
# Aurora-B(h) = Aurora-B(h) (Homo sapiens (Human), UniProt Q96GD4)
# Protocol: as §1
# MEKK3(h) = MEKK3(h) (Homo sapiens (Human), UniProt Q99759)
# Protocol: as §1
# GRK3(h) = GRK3(h) (Homo sapiens (Human), UniProt P35626)
# Protocol: as §1
# CK2(h) = CK2(h) (Homo sapiens (Human), UniProt P68400)
# Protocol: as §1
# IRAK4(h) = IRAK4(h) (Homo sapiens (Human), UniProt Q9NWZ3)
# Protocol: as §1
# CDK1/cyclinB(h) = CDK1/cyclinB(h) (Homo sapiens (Human), UniProt P06493)
# Protocol: as §1
# WNK3(h) = WNK3(h) (Homo sapiens (Human), UniProt Q9BYP7)
# Protocol: as §1
# [3] = molecular target: PI3 Kinase (p110b/p85a)(m) (Mus musculus (Mouse), UniProt Q8BTI9)
# Protocol: as §1
# ZAK(h) = ZAK(h) (Homo sapiens (Human), UniProt Q9NYL2)
# Protocol: as §1
# Met(M1268T)(h) = Met(M1268T)(h) (Homo sapiens (Human), UniProt P08581, M1250T)
# Protocol: as §1
# Aurora-A(h) = Aurora-A(h) (Homo sapiens (Human), UniProt O14965)
# Protocol: as §1
# IGF-1R(h), activated = IGF-1R(h), activated (Homo sapiens (Human), UniProt P08069)
# Sequence of IGF-1R(h), activated (P08069 31-1367): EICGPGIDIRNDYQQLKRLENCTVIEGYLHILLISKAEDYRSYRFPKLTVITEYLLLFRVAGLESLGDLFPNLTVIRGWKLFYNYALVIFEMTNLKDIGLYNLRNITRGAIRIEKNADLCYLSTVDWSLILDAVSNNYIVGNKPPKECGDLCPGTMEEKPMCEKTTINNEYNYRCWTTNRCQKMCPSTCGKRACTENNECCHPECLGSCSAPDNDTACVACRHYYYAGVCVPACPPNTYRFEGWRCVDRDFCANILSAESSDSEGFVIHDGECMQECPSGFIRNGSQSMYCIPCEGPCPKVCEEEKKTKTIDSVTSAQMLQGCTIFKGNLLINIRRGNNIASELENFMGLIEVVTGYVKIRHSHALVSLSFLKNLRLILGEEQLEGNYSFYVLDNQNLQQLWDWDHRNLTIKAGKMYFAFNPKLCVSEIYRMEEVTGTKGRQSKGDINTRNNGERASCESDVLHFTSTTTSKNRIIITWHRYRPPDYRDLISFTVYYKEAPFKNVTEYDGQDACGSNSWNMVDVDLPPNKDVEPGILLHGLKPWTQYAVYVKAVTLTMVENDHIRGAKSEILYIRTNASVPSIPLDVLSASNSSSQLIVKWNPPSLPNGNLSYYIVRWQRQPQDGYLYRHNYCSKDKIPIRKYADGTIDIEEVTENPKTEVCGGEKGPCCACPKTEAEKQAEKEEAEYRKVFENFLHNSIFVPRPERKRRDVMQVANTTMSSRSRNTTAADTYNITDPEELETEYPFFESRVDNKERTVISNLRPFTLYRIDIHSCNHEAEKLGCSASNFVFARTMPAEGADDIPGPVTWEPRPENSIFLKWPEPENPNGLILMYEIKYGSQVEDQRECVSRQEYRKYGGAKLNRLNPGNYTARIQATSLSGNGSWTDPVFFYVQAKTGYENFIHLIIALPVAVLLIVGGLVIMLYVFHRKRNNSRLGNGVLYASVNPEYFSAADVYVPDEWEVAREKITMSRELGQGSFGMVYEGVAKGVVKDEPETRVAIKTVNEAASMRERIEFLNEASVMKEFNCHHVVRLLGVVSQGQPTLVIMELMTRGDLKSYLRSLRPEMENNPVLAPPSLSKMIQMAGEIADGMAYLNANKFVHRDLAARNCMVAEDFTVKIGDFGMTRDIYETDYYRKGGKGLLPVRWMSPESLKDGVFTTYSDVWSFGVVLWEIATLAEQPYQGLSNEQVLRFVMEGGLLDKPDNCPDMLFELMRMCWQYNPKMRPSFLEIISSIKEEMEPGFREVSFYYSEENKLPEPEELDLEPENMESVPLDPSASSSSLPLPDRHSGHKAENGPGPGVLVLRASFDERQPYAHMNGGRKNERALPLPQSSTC
# Protocol: as §1
# BrSK1(h) = BrSK1(h) (Homo sapiens (Human), UniProt Q8TDC3)
# Sequence of BrSK1(h) (Q8TDC3 whole entry): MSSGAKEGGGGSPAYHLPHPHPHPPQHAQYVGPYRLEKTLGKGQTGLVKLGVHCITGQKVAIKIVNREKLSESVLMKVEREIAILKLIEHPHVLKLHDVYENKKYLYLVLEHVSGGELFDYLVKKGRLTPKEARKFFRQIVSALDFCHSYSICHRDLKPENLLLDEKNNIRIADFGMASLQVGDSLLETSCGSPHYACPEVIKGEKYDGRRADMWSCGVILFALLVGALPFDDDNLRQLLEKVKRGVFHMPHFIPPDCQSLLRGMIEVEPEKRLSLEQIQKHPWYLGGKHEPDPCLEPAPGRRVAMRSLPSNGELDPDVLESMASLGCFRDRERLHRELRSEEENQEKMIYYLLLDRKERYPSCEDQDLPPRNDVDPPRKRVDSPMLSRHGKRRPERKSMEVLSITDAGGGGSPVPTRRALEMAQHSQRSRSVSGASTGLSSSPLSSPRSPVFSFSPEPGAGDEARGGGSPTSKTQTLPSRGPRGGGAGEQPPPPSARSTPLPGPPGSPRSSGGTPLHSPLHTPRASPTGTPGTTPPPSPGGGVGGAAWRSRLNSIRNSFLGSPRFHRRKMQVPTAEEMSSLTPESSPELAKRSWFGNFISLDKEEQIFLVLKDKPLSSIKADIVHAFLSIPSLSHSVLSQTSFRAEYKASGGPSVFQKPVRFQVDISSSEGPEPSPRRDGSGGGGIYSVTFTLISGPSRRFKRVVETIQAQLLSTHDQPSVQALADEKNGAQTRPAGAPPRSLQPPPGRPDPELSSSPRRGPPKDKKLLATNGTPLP
# Protocol: as §1
# DYRK1B(h) = DYRK1B(h) (Homo sapiens (Human), UniProt Q9Y463)
# Sequence of DYRK1B(h) (Q9Y463 whole entry): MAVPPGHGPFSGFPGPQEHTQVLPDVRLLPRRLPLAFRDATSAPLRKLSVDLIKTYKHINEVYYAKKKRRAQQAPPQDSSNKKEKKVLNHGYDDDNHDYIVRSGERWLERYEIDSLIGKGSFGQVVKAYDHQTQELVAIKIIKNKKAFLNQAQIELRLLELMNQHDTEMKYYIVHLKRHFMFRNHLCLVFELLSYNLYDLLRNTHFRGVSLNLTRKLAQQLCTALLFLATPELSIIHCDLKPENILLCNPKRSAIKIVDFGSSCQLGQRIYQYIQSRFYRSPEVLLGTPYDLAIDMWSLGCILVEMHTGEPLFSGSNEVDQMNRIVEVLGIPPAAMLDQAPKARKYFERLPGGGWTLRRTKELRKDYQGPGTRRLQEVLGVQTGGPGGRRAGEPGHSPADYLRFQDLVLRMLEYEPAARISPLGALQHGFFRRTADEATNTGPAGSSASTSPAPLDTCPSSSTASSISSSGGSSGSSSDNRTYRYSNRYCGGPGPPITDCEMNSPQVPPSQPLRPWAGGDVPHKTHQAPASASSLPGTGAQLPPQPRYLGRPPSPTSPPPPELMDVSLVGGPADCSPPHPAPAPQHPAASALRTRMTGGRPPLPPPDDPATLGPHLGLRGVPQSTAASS
# Protocol: as §1
# cKit(V560G)(h) = cKit(V560G)(h) (Homo sapiens (Human), UniProt P10721, V560G)
# Protocol: as §1
# Sequence of Met(D1246H)(h) (P08581 956-1390 D1228H limits assumed): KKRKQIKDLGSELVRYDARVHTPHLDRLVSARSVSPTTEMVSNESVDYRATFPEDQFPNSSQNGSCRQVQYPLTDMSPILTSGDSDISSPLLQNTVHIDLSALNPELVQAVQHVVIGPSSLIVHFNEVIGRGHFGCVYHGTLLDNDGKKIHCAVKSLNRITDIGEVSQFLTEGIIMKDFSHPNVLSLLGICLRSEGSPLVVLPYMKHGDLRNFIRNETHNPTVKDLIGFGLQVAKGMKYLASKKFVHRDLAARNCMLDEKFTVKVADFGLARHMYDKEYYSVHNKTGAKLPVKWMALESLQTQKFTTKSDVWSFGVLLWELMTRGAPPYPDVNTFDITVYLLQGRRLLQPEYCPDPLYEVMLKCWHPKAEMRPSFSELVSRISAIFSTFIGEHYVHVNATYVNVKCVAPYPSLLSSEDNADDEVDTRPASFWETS
compound,measurement,setting,value
"C[C@H](NC(=O)c1c[nH]c2ccc(-c3ccc4nc(NC(=O)C5CC5)sc4c3)cc12)c1cccc(F)c1 [Compound 34, (S)-5-(2-(cyclopropanecarboxamido)benzo[d]thiazol-6-yl)-N-(1-(3-fluorophenyl)ethyl)-1H-indole-3-carboxamide]",Inhibition ratio,Met(D1246H)(h),95%
same,Inhibition ratio,PKCβII(h),7%
same,Inhibition ratio,PAR-1Bα(h),2%
same,Inhibition ratio,CDK12/cyclinK(h),21%
same,Inhibition ratio,Mer(h),97%
same,Inhibition ratio,TrkA(h),102%
same,Inhibition ratio,Yes(h),85%
same,Inhibition ratio,CHK2(I157T)(h),24%
same,Inhibition ratio,EGFR(h),19%
same,Inhibition ratio,mTOR/FKBP12(h),10%
same,Inhibition ratio,[1],34%
same,Inhibition ratio,PrKX(h),6%
same,Inhibition ratio,RIPK1(h),100%
same,Inhibition ratio,NIM1(h),−19%
same,Inhibition ratio,PKCβI(h),27%
same,Inhibition ratio,TTK(h),55%
same,Inhibition ratio,EphB1(h),45%
same,Inhibition ratio,[2],33%
same,Inhibition ratio,Aurora-B(h),21%
same,Inhibition ratio,MEKK3(h),2%
same,Inhibition ratio,GRK3(h),−1%
same,Inhibition ratio,CK2(h),−9%
same,Inhibition ratio,IRAK4(h),15%
same,Inhibition ratio,CDK1/cyclinB(h),13%
same,Inhibition ratio,WNK3(h),18%
same,Inhibition ratio,[3],15%
same,Inhibition ratio,ZAK(h),67%
same,Inhibition ratio,Met(M1268T)(h),93%
same,Inhibition ratio,Aurora-A(h),37%
same,Inhibition ratio,"IGF-1R(h), activated",21%
same,Inhibition ratio,BrSK1(h),−28%
same,Inhibition ratio,DYRK1B(h),12%
same,Inhibition ratio,cKit(V560G)(h),88%
"C[C@H](NC(=O)c1cn(C)c2ccc(-c3ccn4nc(NC(=O)C5CC5)nc4c3)cc12)c1cccc(F)c1 [Compound 94, (S)-5-(2-(cyclopropanecarboxamido)-[1,2,4]triazolo[1,5-a]pyridin-7-yl)-N-(1-(3-fluorophenyl)ethyl)-1-methyl-1H-indole-3-carboxamide]",Inhibition ratio/%,Met(D1246H)(h),34%
same,Inhibition ratio/%,PKCβII(h),10%
same,Inhibition ratio/%,PAR-1Bα(h),33%
same,Inhibition ratio/%,CDK12/cyclinK(h),−8%
same,Inhibition ratio/%,Mer(h),−6%
same,Inhibition ratio/%,TrkA(h),−12%
same,Inhibition ratio/%,Yes(h),29%
same,Inhibition ratio/%,CHK2(I157T)(h),61%
same,Inhibition ratio/%,EGFR(h),10%
same,Inhibition ratio/%,mTOR/FKBP12(h),36%
same,Inhibition ratio/%,[1],24%
same,Inhibition ratio/%,PrKX(h),−10%
same,Inhibition ratio/%,RIPK1(h),100%
same,Inhibition ratio/%,NIM1(h),10%
same,Inhibition ratio/%,PKCβI(h),6%
same,Inhibition ratio/%,TTK(h),13%
same,Inhibition ratio/%,EphB1(h),1%
same,Inhibition ratio/%,[2],−1%
same,Inhibition ratio/%,Aurora-B(h),25%
same,Inhibition ratio/%,MEKK3(h),14%
same,Inhibition ratio/%,GRK3(h),−12%
same,Inhibition ratio/%,CK2(h),44%
same,Inhibition ratio/%,IRAK4(h),−11%
same,Inhibition ratio/%,CDK1/cyclinB(h),78%
same,Inhibition ratio/%,WNK3(h),−20%
same,Inhibition ratio/%,[3],10%
same,Inhibition ratio/%,ZAK(h),59%
same,Inhibition ratio/%,Met(M1268T)(h),−10%
same,Inhibition ratio/%,Aurora-A(h),−7%
same,Inhibition ratio/%,"IGF-1R(h), activated",−17%
same,Inhibition ratio/%,BrSK1(h),31%
same,Inhibition ratio/%,DYRK1B(h),−1%
same,Inhibition ratio/%,cKit(V560G)(h),65%
